Converted amounts (≈) assume the structure as drawn. Like-named read-outs stand apart in the source and are kept apart here. Positions of bridges follow the written chain, without caps; N, C: chain ends. Non-standard residues stand in square brackets, D forms with d. Residues, ends and D or L forms follow the SMILES beside them. *: point of attachment. Ileψ(thiazoline)Cys = CC[C@H](C)[C@H](N)C1=N[C@H](C(=O)*)CS1; dOrn = NCCC[C@@H](N)C(=O)O
How the values were obtained:
[1] = tested on: Lactococcus lactis subsp. lactis MM19; assay: Antibiotic MIC plates (resistance profile); format: cell-based; details: MM19, median of two repetitions
Text: (§1) The protocol was adapted from Delgado et al. (2005). Minimum Inhibitory Concentration (MIC) Plate (# GPN3F) and Anaerobe MIC Plate (# AN02B) were used to determine the antibiotic sensitivity and resistance profile of MM19 and MM33 according to the instructions of the manufacturer (Trek Diagnostic Systems; Nova Century, Burlington, ON, Canada).
(§2) Lactococcus lactis subsp. lactis MM19, Pediococcus acidilactici MM33 and Lactobacillus rhamnosus GG (ATCC 53103) from frozen glycerol stock were first inoculated in Lactobacilli MRS and incubated at 37° C. for 18 h. 100 μl of this culture were further incubated under the same conditions. This second culture was then inoculated on a MRS agar plate and incubated at 37° C. for 48 h under anaerobic conditions using GasPak Plus system (BD BBL, Sparks, Md., USA).

[2] = tested on: Lactobacillus rhamnosus GG (ATCC 53103); assay: Antibiotic MIC plates (resistance profile); format: cell-based; details: median of two repetitions
Text: as §1, §2

[3] = tested on: Pediococcus acidilactici MM33; assay: Antibiotic MIC plates (resistance profile); format: cell-based; details: median of two repetitions
Text: as §1, §2

[4] = tested on: vancomycin-resistant Enterococcus (VRE); assay: VRE intestinal colonization (infection) model; format: in vivo, CF-1 mice
Experimental: The tubes containing fresh stool samples, collected from individual mice, were weighted, so that the weight of the feces could be deduced. Then, all the feces were diluted in […] of sterile saline, homogenized with a pestle, and serially diluted 10-fold in 0.1% peptone water. Finally, […] of each dilution were inoculated on the following media: MRS agar for detection of total lactic acid bacteria (LAB), Rogosa SL agar for selective detection of Lactobacillus spp., Reinforced Clostridium Medium (RCM) for quantification of total anaerobic and mesophilic bacteria, Baird-Parker agar (BPA) for selective detection of Staphylococcus spp., MacConkey agar for selective enumeration of Enterobacteriaceae, Enterococcosel agar for selective quantification of total Enterococcus spp. and finally Enterococcosel agar+20 μg/ml of vancomycin (Sigma) for detection and enumeration of VRE. A volume of 100 μl of the undiluted sample was also plated. MRS, Rogosa and RCM plates were incubated in anaerobic jars at 37° C. for 72 h while BPA, MacConkey and both Enterococcosel agar plates were incubated under aerobic conditions at 37° C. for 48 h. When negative results were obtained for Enterococcosel agar+20 μg/ml of vancomycin after 48 h of incubation, the plates were allowed to incubate for another 24 h. For statistical purposes, a value in CFU per gram that was based upon the weight of individual specimens was assigned for faeces without microorganisms.
A VRE intestinal colonization (infection) model was adapted from Donskey et al. 25-30 g CF-1 female mice (Charles River) were used. Daily subcutaneous administration of clindamycin (1.4 mg/d) for five days was used to disrupt the intestinal microbiota to induce VRE infection. Three days after the end of clindamycin administration, gastric inoculation of 250 μl of an overnight culture of VRE in BHI broth was used to infect the mice. Approximately 10^8 viable VRE was administered to the mice. Since the beginning of the antibiotic therapy, all groups of LAB-treated mice received once daily […] of 10^10 CFU/ml of Lc. lactis subsp. lactis MM19, P. acidilactici MM33 or P. acidilactici MM33A previously washed twice in sterile PBS. The mice received the LAB until the eighth day after the infection. Bacitracin (Sigma) antibiotic was administrated orally once daily during three days following the mice infection with VRE as 600 units/d diluted in […] of sterile PBS. This treatment was then discontinued and replaced by PBS. Stool samples were collected before the antibiotic administration and 1, 3, 6, 8 and 12 days after the VRE infection. Fecal concentrations of total culturable VRE were analyzed using selective media. This experiment was repeated twice using a total of eight mice per experimental group.

[5] = Lactococcus lactis, ANO2 plate, read-out: MIC
[6] = Lactococcus lactis, GPN3F plate, read-out: MIC
[7] = Lacticaseibacillus rhamnosus, ATCC53103, L. rhamnosus GG, ANO2 plate, read-out: MIC
[8] = Lacticaseibacillus rhamnosus, ATCC53103, L. rhamnosus GG, GPN3F plate, read-out: MIC
[9] = Pediococcus acidilactici, MM33, MM33, ANO2 plate, read-out: MIC
[10] = Pediococcus acidilactici, MM33, MM33, GPN3F plate, read-out: MIC

SMILES	MIC [1, 5] [mg/L]	MIC [1, 6] [mg/L]	MIC [2, 7] [mg/L]	MIC [2, 8] [mg/L]	MIC [3, 9] [mg/L]	MIC [3, 10] [mg/L]	other results
CC1(C)S[C@@H]2[C@H](NC(=O)[C@H](N)c3ccccc3)C(=O)N2[C@H]1C(=O)O [AMP, Ampicillin]	< 0.5	0.12 to 0.25 (≈ 0.343 to 0.715 µM)	1 (≈ 2.86 µM)	1 (≈ 2.86 µM)	4 (≈ 11.4 µM)	2 (≈ 5.72 µM)	
CC[C@H](C)[C@H](N)C1=N[C@H](C(=O)N[C@@H](CC(C)C)C(=O)N[C@H](CCC(=O)O)C(=O)N[C@H](C(=O)N[C@H]2CCCCNC(=O)[C@H](CC(N)=O)NC(=O)[C@@H](CC(=O)O)NC(=O)[C@H](Cc3cnc[nH]3)NC(=O)[C@@H](Cc3ccccc3)NC(=O)[C@H]([C@@H](C)CC)NC(=O)[C@@H](CCCN)NC2=O)[C@@H](C)CC)CS1 [Bacitracin] ({Ileψ(thiazoline)Cys}-L[dE]IK[dOrn]I[dF]H[dD]N; lactam 4-C)							Mice colonized with VRE (%) ([4]; 0 days after VRE infection): 0%; Mice colonized with VRE (%) ([4]; 1 day after VRE infection): 100%; Mice colonized with VRE (%) ([4]; 3 days after VRE infection): 0%; Mice colonized with VRE (%) ([4]; 6 days after VRE infection): 100%; Mice colonized with VRE (%) ([4]; 8 days after VRE infection): 100%; Mice colonized with VRE (%) ([4]; 12 days after VRE infection): 100%; VRE population (in words) ([4]; after the treatment was discontinued): reappeared; Level of VRE in feces (in words) ([4]; day 3, 600 units/d orally for three days after infection): undetectable level
O=C(N[C@H](CO)[C@H](O)c1ccc([N+](=O)[O-])cc1)C(Cl)Cl [CHL, Chloramphenicol]	4 (≈ 12.4 µM)		8 (≈ 24.8 µM)		16 (≈ 49.5 µM)		
CCC[C@@H]1C[C@@H](C(=O)N[C@@H]([C@H]2O[C@H](SC)[C@H](O)[C@@H](O)[C@H]2O)[C@H](C)Cl)N(C)C1 [CLI, Clindamycin]	0.5 (≈ 1.18 µM)	0.25 (≈ 0.588 µM)	0.5 (≈ 1.18 µM)	< 0.12	< 0.25	< 0.12	
CCCCCCCCCC(=O)N[C@@H](Cc1c[nH]c2ccccc12)C(=O)N[C@H](CC(N)=O)C(=O)N[C@@H](CC(=O)O)C(=O)N[C@@H]1C(=O)NCC(=O)N[C@@H](CCCN)C(=O)N[C@@H](CC(=O)O)C(=O)N[C@H](C)C(=O)N[C@@H](CC(=O)O)C(=O)NCC(=O)N[C@H](CO)C(=O)N[C@@H]([C@H](C)CC(=O)O)C(=O)N[C@@H](CC(=O)c2ccccc2N)C(=O)O[C@@H]1C [DAP, Daptomycin]		0.5 to 1 (≈ 0.309 to 0.617 µM)		2 (≈ 1.23 µM)		1 (≈ 0.617 µM)	
CC[C@H]1OC(=O)[C@H](C)[C@@H](O[C@H]2C[C@@](C)(OC)[C@@H](O)[C@H](C)O2)[C@H](C)[C@@H](O[C@@H]2O[C@H](C)C[C@H](N(C)C)[C@H]2O)[C@](C)(O)C[C@@H](C)C(=O)[C@H](C)[C@@H](O)[C@]1(C)O [ERY, Erythromycin]		< 0.25		< 0.25		< 0.25	
COc1c(N2CCNC(C)C2)c(F)cc2c(=O)c(C(=O)O)cn(C3CC3)c12 (stereo not shown) [GAT, Gatofloxacin]							MIC ([1]; GPN3F plate): <1 mg/L; MIC ([2]; L. rhamnosus GG, GPN3F plate): <1 mg/L; MIC ([3]; MM33, GPN3F plate): <1 mg/L
C[C@@H](O)[C@H]1C(=O)N2C(C(=O)O)=C(SCCN=CN)C[C@H]12 [IMI, Imipenem]	0.25 (≈ 0.835 µM)		2 (≈ 6.68 µM)		0.5 (≈ 1.67 µM)		

The next lines start with results.

MIC [1, 5] [mg/L]	MIC [1, 6] [mg/L]	MIC [2, 7] [mg/L]	MIC [2, 8] [mg/L]	MIC [3, 9] [mg/L]	MIC [3, 10] [mg/L]	SMILES	other results
	< 8		32 to 64 (≈ 57.7 to 115 µM)		16 (≈ 28.9 µM)	CO/N=C(\C(=O)N[C@@H]1C(=O)N2C(C(=O)O)=C(CSc3nc(=O)c(=O)[nH]n3C)CS[C@H]12)c1csc(N)n1 [AXO, Ceftriaxone]	
	2 (≈ 6.04 µM)		1 (≈ 3.02 µM)			O=C(O)c1cn(C2CC2)c2cc(N3CCNCC3)c(F)cc2c1=O [CIP, Ciprofloxacin]	
> 32		> 32		> 32		CO[C@@]1(NC(=O)Cc2cccs2)C(=O)N2C(C(=O)O)=C(COC(N)=O)CS[C@@H]21 [FOX, Cefoxitin]	
	0.5 (≈ 1.38 µM)		2 to 4 (≈ 5.53 to 11.1 µM)		> 8	C[C@H]1COc2c(N3CCN(C)CC3)c(F)cc3c(=O)c(C(=O)O)cn1c23 [LEVO, Levofloxacin]	
	2 (≈ 5.93 µM)		1 to 2 (≈ 2.96 to 5.93 µM)		4 to 8 (≈ 11.9 to 23.7 µM)	CC(=O)NC[C@H]1CN(c2ccc(N3CCOCC3)c(F)c2)C(=O)O1 [LZD, Linezolid]	
< 0.5		8 (≈ 20.9 µM)		2 (≈ 5.22 µM)		C[C@@H](O)[C@H]1C(=O)N2C(C(=O)O)=C(S[C@@H]3CN[C@H](C(=O)N(C)C)C3)[C@H](C)[C@H]12 [MERO, Meropenem]	
